These results are taken from ChEMBL document CHEMBL3991601, “The target landscape of clinical kinase drugs” (Science, 2017).

Activity calls are given as the source filed them.

One assay addresses Insulin receptor (Homo sapiens, UniProt P06213).
The target in assay [1] is Elongation factor Tu, mitochondrial (Homo sapiens, UniProt P49411).
The target of assay [2] is Calcium/calmodulin-dependent protein kinase type II subunit gamma (Homo sapiens, UniProt Q13555).
For assay [3], the target named is T1, Dynamin-like GTPase OPA1, mitochondrial (Homo sapiens, UniProt O60313).
T1 sequence (O60313 whole entry): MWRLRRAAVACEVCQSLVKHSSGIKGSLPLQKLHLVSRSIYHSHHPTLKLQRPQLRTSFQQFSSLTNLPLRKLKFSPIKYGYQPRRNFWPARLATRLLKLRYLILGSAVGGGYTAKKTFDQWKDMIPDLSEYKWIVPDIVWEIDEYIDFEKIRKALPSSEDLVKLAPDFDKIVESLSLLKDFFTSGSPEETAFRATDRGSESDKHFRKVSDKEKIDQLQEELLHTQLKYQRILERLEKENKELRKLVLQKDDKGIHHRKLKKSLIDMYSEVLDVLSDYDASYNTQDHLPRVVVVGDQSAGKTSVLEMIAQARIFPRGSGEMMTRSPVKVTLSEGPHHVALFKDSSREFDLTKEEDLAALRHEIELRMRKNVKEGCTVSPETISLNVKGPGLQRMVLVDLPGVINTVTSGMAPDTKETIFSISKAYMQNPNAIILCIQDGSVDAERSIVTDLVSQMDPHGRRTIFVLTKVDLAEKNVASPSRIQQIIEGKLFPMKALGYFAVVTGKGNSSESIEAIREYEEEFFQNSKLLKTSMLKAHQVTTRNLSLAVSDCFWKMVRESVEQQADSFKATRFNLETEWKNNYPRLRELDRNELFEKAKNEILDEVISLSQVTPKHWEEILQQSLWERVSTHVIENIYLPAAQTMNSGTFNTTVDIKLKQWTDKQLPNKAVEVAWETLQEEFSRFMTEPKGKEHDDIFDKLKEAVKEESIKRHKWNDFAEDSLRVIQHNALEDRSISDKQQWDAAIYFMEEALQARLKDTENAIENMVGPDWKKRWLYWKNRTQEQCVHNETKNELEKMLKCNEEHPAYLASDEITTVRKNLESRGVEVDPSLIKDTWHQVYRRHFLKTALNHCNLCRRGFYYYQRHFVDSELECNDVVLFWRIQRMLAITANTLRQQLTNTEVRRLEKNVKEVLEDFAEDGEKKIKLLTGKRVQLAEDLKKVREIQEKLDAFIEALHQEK

Assay [4] has as its target T2, Peroxisomal acyl-coenzyme A oxidase 3 (Homo sapiens, UniProt O15254).
T2 sequence (O15254 whole entry): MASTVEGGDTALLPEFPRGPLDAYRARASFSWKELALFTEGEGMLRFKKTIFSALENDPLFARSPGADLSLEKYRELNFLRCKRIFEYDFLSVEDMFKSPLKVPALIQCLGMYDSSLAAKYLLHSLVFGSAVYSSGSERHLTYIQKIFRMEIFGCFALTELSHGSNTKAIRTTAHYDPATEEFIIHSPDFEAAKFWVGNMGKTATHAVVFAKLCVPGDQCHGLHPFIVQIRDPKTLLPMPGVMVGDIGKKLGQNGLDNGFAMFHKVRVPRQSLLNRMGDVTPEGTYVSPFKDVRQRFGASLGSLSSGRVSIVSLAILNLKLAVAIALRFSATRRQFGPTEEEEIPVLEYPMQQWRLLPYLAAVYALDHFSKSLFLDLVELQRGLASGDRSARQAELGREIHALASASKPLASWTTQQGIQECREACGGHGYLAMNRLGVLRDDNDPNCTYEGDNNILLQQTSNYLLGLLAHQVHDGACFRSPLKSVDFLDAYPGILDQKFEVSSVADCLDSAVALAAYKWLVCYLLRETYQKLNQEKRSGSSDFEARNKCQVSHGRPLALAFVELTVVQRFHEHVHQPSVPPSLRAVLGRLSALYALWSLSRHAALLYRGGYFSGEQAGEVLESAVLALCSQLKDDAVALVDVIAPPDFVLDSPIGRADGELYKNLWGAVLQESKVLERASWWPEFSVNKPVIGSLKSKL

Assay [5] deals with T3, Serine/threonine-protein kinase TBK1 (Homo sapiens, UniProt Q9UHD2).
T3 sequence (Q9UHD2 whole entry): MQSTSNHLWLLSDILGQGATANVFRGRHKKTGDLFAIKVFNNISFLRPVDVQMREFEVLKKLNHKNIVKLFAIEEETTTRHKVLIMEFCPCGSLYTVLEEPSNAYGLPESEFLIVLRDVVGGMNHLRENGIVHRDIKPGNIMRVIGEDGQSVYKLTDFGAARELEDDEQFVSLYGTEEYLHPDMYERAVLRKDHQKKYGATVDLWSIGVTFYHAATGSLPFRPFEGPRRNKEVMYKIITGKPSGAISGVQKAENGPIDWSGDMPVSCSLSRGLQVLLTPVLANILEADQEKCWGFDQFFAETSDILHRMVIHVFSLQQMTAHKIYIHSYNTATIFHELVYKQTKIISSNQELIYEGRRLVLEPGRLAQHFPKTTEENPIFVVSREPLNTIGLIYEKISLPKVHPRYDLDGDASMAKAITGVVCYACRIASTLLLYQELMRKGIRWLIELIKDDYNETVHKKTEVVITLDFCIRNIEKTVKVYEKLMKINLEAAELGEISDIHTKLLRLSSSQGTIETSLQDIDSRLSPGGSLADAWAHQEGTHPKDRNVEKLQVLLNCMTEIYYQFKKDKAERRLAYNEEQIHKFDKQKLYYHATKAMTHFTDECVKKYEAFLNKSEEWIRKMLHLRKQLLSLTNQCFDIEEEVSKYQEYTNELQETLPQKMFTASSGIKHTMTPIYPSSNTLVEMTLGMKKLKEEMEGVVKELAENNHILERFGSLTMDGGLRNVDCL

The target in assay [6] is T4, Ribosyldihydronicotinamide dehydrogenase [quinone] (Homo sapiens, UniProt P16083).
T4 sequence (P16083 whole entry): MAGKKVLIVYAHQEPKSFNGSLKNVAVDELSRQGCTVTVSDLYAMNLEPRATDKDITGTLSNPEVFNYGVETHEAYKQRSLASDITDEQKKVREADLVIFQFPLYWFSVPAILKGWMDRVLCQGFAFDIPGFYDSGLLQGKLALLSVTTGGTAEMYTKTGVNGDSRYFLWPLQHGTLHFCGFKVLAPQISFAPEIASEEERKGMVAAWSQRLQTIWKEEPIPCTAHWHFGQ

The target of assay [7] is Serine/threonine-protein kinase SIK2 (Homo sapiens, UniProt Q9H0K1).
Sequence of Serine/threonine-protein kinase SIK2 (Q9H0K1 whole entry): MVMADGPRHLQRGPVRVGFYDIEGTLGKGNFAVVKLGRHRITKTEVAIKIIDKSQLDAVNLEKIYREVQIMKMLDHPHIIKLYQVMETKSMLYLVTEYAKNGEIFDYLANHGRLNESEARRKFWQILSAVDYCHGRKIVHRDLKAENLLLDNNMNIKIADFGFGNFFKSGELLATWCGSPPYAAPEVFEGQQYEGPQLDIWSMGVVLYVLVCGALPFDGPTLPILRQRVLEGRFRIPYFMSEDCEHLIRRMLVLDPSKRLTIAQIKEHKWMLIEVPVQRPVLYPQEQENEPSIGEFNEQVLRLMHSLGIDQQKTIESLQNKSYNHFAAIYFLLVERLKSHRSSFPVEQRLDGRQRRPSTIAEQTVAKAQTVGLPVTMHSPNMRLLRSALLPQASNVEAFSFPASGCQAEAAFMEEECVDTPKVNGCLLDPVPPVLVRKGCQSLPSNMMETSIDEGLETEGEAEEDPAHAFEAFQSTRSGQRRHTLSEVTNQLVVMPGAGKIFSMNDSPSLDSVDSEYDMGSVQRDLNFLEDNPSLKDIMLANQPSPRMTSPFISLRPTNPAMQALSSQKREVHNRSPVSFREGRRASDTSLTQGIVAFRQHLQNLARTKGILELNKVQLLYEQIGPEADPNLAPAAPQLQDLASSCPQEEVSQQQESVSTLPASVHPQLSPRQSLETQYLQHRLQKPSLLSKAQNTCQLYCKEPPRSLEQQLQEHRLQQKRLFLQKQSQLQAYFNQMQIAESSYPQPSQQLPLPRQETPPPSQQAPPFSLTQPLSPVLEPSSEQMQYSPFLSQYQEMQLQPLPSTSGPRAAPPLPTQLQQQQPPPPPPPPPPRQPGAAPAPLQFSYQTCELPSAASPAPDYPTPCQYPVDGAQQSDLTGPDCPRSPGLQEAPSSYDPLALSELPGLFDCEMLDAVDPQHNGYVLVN
Another assay addresses Midasin (Homo sapiens, UniProt Q9NU22).
Further: in the data inactive means no Kd found up to 30 µM.

Sequence of Insulin receptor (P06213 28-758 limits assumed): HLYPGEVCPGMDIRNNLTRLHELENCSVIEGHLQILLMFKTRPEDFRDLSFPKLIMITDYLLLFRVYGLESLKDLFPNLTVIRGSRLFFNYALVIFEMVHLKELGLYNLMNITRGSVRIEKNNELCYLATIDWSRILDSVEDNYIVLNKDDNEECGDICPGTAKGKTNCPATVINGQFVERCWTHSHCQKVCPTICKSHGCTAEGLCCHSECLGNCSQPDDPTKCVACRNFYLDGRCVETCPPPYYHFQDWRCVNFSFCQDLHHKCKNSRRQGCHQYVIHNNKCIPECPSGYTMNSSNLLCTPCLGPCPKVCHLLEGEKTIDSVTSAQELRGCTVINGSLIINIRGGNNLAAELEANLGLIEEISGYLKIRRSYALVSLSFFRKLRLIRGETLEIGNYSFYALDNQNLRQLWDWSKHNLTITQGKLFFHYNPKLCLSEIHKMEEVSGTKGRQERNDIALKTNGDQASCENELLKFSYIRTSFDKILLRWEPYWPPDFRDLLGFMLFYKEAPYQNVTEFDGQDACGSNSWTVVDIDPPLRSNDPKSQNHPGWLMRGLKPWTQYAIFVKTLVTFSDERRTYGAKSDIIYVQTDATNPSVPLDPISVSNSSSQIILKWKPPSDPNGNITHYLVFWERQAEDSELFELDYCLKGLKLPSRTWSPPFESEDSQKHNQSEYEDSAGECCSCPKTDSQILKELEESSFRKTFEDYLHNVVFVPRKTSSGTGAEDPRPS
Sequence of Insulin receptor (P06213 763-1382 limits assumed): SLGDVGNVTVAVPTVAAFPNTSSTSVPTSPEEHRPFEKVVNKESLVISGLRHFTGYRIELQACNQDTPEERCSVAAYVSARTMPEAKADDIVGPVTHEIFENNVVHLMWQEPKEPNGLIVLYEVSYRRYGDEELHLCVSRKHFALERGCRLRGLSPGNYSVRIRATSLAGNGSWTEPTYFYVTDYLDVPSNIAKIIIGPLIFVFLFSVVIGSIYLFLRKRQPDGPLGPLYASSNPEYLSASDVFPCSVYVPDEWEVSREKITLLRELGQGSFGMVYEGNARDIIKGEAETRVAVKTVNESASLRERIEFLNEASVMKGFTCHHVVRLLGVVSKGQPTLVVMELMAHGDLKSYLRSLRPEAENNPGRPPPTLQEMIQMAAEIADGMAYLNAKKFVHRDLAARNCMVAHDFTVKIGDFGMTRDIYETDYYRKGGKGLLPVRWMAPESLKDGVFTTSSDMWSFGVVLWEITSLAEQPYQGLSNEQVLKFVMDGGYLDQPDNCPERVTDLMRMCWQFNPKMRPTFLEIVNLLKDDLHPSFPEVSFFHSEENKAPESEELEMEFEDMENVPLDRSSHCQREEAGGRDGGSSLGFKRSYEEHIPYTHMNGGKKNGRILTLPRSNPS
Sequence of Calcium/calmodulin-dependent protein kinase type II subunit gamma (Q13555 whole entry): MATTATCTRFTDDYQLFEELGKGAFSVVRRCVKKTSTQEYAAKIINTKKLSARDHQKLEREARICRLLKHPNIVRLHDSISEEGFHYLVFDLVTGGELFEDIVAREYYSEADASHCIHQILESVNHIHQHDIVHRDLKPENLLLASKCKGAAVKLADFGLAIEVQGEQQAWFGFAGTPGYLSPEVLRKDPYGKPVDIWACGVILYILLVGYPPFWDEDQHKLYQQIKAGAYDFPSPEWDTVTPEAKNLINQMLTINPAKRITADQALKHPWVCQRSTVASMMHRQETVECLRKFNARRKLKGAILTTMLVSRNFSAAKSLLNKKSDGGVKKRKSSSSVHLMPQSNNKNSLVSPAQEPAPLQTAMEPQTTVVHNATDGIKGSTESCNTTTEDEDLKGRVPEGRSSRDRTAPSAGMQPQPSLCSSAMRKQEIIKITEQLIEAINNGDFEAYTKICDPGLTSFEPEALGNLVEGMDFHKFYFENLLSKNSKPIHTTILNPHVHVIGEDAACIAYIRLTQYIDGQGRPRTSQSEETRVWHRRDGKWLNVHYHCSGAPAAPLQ

Turning to `C=CC(=O)N1CCC(Oc2cc3c(Nc4ccc(Cl)c(Cl)c4F)ncnc3cc2OC)CC1` [POZIOTINIB], the Kd (on Insulin receptor; in assay [1]; in assay [2]; in [3]; in assay [4]; in assay [5]) was > 30 µM (inactive) in each case. For the same compound, the Kd (in assay [6]; in assay [7]; at Midasin) was > 30 µM (inactive) in each case.

Consider `Cn1cc(-c2ccc3nnc(C(F)(F)c4ccc5ncccc5c4)n3n2)cn1` [JNJ-38877605], for which the Kd (on Insulin receptor; in [1]; in [2]; in [3]; in [4]; in assay [5]) was > 30 µM (inactive) throughout. Also, the Kd (usually the free concentration of one partner at which half of the binding sites on the other are occupied at equilibrium, for simple one-to-one binding) in assay [6] was 0.323 µM (active); in [7], > 30 µM (inactive); on Midasin it was > 30 µM (inactive).

Turning to `Cc1ccc(-n2nc(C(C)(C)C)cc2NC(=O)NCc2cc(F)ccc2Oc2ccc3c(cnn3CCO)c2)cc1` [PEXMETINIB], the Kd (on Insulin receptor; in [1]; in [2]; in assay [3]; in assay [4]; in [5]) was > 30 µM (inactive) in each case. In addition, the Kd (in assay [6]; in assay [7]; at Midasin) was > 30 µM (inactive) each time.

With `Cc1c(F)cc(C(=O)NC2CC2)cc1-c1ccc(C(=O)NCC(C)(C)C)cn1` [LOSMAPIMOD], the Kd (at Insulin receptor; in assay [1]; in assay [2]; in [3]; in assay [4]; in [5]) was > 30 µM (inactive) in each case. The Kd (in assay [6]; in [7]; on Midasin) was > 30 µM (inactive) throughout.

As to `COc1cc(N2CCC(N3CCN(C)CC3)CC2)ccc1Nc1ncnc(Nc2ccccc2S(=O)(=O)C(C)C)n1` [ASP-3026], the Kd on Insulin receptor was 7.91 µM (active); in [1] it was > 30 µM (inactive); in [2] it was 1.41 µM (active); in assay [3] it was > 30 µM (inactive); in [4], > 30 µM (inactive); in assay [5], > 30 µM (inactive). The figures for the dissociation constant (Kd) (in assay [6]; in assay [7]; on Midasin) were 6.36 µM (active), 0.123 µM (active) and > 30 µM (inactive), respectively.

For `CNC(=O)c1ccc(-c2cnc3ncc(Cc4ccc5ncccc5c4)n3n2)cc1F` [CAPMATINIB], the Kd (at Insulin receptor; in assay [1]; in assay [2]; in assay [3]; in assay [4]; in [5]) was > 30 µM (inactive) in each case. The Kd (in [6]; in assay [7]; at Midasin) was > 30 µM (inactive) in each case.

With `CNC(=O)c1ccc(C)c(-n2c(C)cc(OCc3ccc(F)cc3F)c(Br)c2=O)c1` [PH-797804], the Kd (at Insulin receptor; in [1]; in [2]; in assay [3]; in assay [4]; in assay [5]) was > 30 µM (inactive) throughout. The Kd (in assay [6]; in assay [7]; at Midasin) was > 30 µM (inactive) in each case.

On to `C[C@@H](Nc1cc(F)cc(F)c1)c1cc(C(=O)N(C)C)cc2c(=O)cc(N3CCOCC3)oc12` [AZD-8186], for which the Kd (on Insulin receptor; in [1]; in assay [2]; in assay [3]; in assay [4]; in assay [5]) was > 30 µM (inactive) in each case. Further, the Kd (in [6]; in [7]; on Midasin) was > 30 µM (inactive) each time.

For `C[C@@H](c1ccc2nccn2c1)n1nnc2ncc(-c3cnn(C)c3)nc21` [SAVOLITINIB], the Kd (on Insulin receptor; in [1]; in assay [2]; in assay [3]; in [4]; in [5]) was > 30 µM (inactive) in each case. The results for the dissociation constant Kd (in [6]; in [7]; at Midasin) were 0.206 µM (active), > 30 µM (inactive) and > 30 µM (inactive), respectively.

As for `CN1CCC(COc2cnc(-c3cccc(Cn4nc(-c5cccc(C#N)c5)ccc4=O)c3)nc2)CC1` [TEPOTINIB], the Kd (at Insulin receptor; in assay [1]; in assay [2]; in [3]; in assay [4]; in assay [5]) was > 30 µM (inactive) in each case. For the same compound, the values for the Kd (in assay [6]; in assay [7]; at Midasin) were 0.875 µM (active), > 30 µM (inactive) and > 30 µM (inactive), respectively.

On to `CNC(=O)c1cc(Oc2ccc(NC(=O)Nc3ccc(Cl)c(C(F)(F)F)c3)c(F)c2)ccn1` [REGORAFENIB], for which the Kd (at Insulin receptor; in assay [1]; in [2]; in [3]; in [4]; in assay [5]) was > 30 µM (inactive) throughout. Moreover, the Kd (in assay [6]; in [7]; on Midasin) was > 30 µM (inactive) throughout.
